Columns and labels:
Assay in all cases: biochemical
Type in all cases: biochemical
382 unique human kinases [1] = target: T1, 382 unique human kinases (Homo sapiens, UniProt P16234, D842V); details: PDGFRa (D842V), [ATP] 1 µM, compound 10 uM; for remaining activity at 10 µM: read-out: % Enzyme Activity (relative to DMSO controls)
T1 construct: purchased Reaction Biology (HotSpot contract assay)

382 unique human kinases [2] = target: T2, 382 unique human kinases (Homo sapiens, UniProt Q16832, N456S); details: DDR2 (N456S), [ATP] 2.5 µM, compound 10 uM; for remaining activity at 10 µM: read-out: % Enzyme Activity (relative to DMSO controls)
T2 construct: purchased Reaction Biology (HotSpot contract assay)
T2 sequence (Q16832 22-855 N456S): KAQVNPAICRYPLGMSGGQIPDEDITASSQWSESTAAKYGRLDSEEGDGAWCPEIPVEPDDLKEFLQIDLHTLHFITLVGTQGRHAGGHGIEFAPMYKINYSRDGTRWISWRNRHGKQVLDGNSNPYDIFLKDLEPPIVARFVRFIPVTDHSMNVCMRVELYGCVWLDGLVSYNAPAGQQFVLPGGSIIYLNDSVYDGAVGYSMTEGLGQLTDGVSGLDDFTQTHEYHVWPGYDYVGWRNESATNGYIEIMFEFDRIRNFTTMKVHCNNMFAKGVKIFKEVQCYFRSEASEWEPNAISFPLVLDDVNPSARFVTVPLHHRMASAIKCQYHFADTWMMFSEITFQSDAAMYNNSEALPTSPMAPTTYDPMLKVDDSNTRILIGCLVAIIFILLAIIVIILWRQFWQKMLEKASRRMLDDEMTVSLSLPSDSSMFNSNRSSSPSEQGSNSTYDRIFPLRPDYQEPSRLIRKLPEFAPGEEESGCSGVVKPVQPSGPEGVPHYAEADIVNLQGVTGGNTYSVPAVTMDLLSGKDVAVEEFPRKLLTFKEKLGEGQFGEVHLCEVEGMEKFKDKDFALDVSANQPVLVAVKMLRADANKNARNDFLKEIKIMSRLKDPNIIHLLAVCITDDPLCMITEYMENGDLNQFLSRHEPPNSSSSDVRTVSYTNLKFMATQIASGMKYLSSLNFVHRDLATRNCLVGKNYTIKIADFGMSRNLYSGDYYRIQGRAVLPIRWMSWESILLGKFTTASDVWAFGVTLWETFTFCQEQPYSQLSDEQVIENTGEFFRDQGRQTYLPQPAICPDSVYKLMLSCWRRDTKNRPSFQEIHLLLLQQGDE

382 unique human kinases [3] = target: T3, 382 unique human kinases (Homo sapiens, UniProt O14965); details: Aurora A, [ATP] 2.5 µM, compound 10 uM; for remaining activity at 10 µM: read-out: % Enzyme Activity (relative to DMSO controls)
T3 construct: purchased Reaction Biology (HotSpot contract assay)
T3 sequence (O14965 1-403): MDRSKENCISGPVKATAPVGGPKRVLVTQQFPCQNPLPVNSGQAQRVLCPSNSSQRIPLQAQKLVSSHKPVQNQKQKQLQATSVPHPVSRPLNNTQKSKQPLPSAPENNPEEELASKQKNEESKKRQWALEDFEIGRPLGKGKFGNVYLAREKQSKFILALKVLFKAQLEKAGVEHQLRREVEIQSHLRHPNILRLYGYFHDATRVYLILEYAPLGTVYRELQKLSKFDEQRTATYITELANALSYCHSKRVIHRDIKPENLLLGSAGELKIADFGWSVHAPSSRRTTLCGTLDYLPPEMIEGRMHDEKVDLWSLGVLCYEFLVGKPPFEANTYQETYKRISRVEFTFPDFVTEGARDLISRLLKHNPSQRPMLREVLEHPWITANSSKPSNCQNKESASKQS

382 unique human kinases [4] = target: T4, 382 unique human kinases (Homo sapiens, UniProt P43405); details: SYK, 10 uM; for remaining activity at 10 µM: read-out: % Enzyme Activity (relative to DMSO controls)
T4 construct: purchased Reaction Biology (HotSpot contract assay)

382 unique human kinases [5] = target: T5, 382 unique human kinases (Homo sapiens, UniProt P17252); details: PKCa, 10 uM; for remaining activity at 10 µM: read-out: % Enzyme Activity (relative to DMSO controls)
T5 construct: purchased Reaction Biology (HotSpot contract assay)

382 unique human kinases [6] = target: T6, 382 unique human kinases (Homo sapiens, UniProt P10721, V559D/V654A); details: c-Kit (V559D/V654A), 10 uM; for remaining activity at 10 µM: read-out: % Enzyme Activity (relative to DMSO controls)
T6 construct: purchased Reaction Biology (HotSpot contract assay)

382 unique human kinases [7] = target: T7, 382 unique human kinases (Homo sapiens, UniProt P06239); details: LCK, [ATP] 15 µM
T7 construct: purchased Reaction Biology (HotSpot contract assay)

382 unique human kinases [8] = target: T8, 382 unique human kinases (Homo sapiens, UniProt Q9H0K1); details: SIK2, [ATP] 30 µM
T8 construct: purchased Reaction Biology (HotSpot contract assay)

382 unique human kinases [9] = target: T9, 382 unique human kinases (Homo sapiens, UniProt Q5TCY1); details: TTBK1, 10 uM; for remaining activity at 10 µM: read-out: % Enzyme Activity (relative to DMSO controls)
T9 construct: purchased Reaction Biology (HotSpot contract assay)

382 unique human kinases [10] = target: T10, 382 unique human kinases (Homo sapiens, UniProt P54764); details: EPHA4, [ATP] 30 µM, compound 10 uM; for remaining activity at 10 µM: read-out: % Enzyme Activity (relative to DMSO controls)
T10 construct: purchased Reaction Biology (HotSpot contract assay)

382 unique human kinases [11] = target: T11, 382 unique human kinases (Homo sapiens, UniProt Q13554); details: kinase CAMK2b, compound 10 uM; for remaining activity at 10 µM: read-out: % Enzyme Activity (relative to DMSO controls)
T11 construct: purchased Reaction Biology (HotSpot contract assay)

382 unique human kinases [12] = target: T12, 382 unique human kinases (Homo sapiens, UniProt Q9UEW8); details: STK39/STLK3, 10 uM; for remaining activity at 10 µM: read-out: % Enzyme Activity (relative to DMSO controls)
T12 construct: purchased Reaction Biology (HotSpot contract assay)

382 unique human kinases [13] = target: T13, 382 unique human kinases (Homo sapiens, UniProt Q9H2G2); details: SLK/STK2, 10 uM; for remaining activity at 10 µM: read-out: % Enzyme Activity (relative to DMSO controls)
T13 construct: purchased Reaction Biology (HotSpot contract assay)

382 unique human kinases [14] = target: T14, 382 unique human kinases (Homo sapiens, UniProt P00533, L861Q); details: kinase EGFR (L861Q), compound 10 uM; for remaining activity at 10 µM: read-out: % Enzyme Activity (relative to DMSO controls)
T14 construct: purchased Reaction Biology (HotSpot contract assay)

382 unique human kinases [15] = target: T15, 382 unique human kinases (Homo sapiens, UniProt P04049); details: RAF1, compound at 10 uM, duplicate values; for remaining activity at 10 µM: read-out: % Enzyme Activity (relative to DMSO controls)
T15 construct: purchased Reaction Biology (HotSpot contract assay)

382 unique human kinases [16] = target: T16, 382 unique human kinases (Homo sapiens, UniProt Q16512); details: PKN1/PRK1, 10 uM; for remaining activity at 10 µM: read-out: % Enzyme Activity (relative to DMSO controls)
T16 construct: purchased Reaction Biology (HotSpot contract assay)

382 unique human kinases [17] = target: T17, 382 unique human kinases (Homo sapiens, UniProt P07949, S904F); details: RET (S904F), 10 uM; for remaining activity at 10 µM: read-out: % Enzyme Activity (relative to DMSO controls)
T17 construct: purchased Reaction Biology (HotSpot contract assay)

382 unique human kinases [18] = target: T18, 382 unique human kinases (Homo sapiens, UniProt Q02763, R849W); details: kinase TIE2 (R849W), compound 10 uM; for remaining activity at 10 µM: read-out: % Enzyme Activity (relative to DMSO controls)
T18 construct: purchased Reaction Biology (HotSpot contract assay)

382 unique human kinases [19] = target: T19, 382 unique human kinases (Homo sapiens, UniProt Q15303); details: kinase ERBB4/HER4, compound 10 uM; for remaining activity at 10 µM: read-out: % Enzyme Activity (relative to DMSO controls)
T19 construct: purchased Reaction Biology (HotSpot contract assay)

[20] = compound 10 uM, read-out: % Enzyme Activity (relative to DMSO controls)
[21] = compound 1 uM, read-out: % Enzyme Activity (relative to DMSO controls)

T18 sequence (Q02763 23-1124 R849W): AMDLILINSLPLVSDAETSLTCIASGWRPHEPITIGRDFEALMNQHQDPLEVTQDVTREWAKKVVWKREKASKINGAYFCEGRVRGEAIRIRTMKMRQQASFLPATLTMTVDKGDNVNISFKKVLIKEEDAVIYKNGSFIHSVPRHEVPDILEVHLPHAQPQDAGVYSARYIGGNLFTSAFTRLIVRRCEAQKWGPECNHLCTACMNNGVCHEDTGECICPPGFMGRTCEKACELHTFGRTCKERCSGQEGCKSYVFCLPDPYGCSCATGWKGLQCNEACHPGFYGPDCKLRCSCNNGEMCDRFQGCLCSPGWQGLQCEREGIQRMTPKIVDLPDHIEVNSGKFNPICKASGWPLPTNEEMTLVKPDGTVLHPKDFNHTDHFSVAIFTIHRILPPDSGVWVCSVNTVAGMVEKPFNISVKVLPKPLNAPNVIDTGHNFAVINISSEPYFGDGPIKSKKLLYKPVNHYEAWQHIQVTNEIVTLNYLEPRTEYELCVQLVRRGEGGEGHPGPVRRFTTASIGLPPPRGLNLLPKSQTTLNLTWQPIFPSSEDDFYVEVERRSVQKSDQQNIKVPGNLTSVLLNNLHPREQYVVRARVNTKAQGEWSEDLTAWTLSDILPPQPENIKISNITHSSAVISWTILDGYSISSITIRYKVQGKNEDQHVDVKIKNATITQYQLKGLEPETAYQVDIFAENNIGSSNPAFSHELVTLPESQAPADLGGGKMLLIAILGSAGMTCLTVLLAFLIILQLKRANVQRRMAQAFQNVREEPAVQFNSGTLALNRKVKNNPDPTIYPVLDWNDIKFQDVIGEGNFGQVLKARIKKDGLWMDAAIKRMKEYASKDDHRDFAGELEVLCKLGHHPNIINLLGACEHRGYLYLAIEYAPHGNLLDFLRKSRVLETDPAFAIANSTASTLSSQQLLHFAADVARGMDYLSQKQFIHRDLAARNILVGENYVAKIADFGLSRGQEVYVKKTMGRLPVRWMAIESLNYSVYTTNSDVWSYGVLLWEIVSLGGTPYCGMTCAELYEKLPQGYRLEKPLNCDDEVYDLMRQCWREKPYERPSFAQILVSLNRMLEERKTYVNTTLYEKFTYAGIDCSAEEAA
T9 sequence (Q5TCY1 whole entry): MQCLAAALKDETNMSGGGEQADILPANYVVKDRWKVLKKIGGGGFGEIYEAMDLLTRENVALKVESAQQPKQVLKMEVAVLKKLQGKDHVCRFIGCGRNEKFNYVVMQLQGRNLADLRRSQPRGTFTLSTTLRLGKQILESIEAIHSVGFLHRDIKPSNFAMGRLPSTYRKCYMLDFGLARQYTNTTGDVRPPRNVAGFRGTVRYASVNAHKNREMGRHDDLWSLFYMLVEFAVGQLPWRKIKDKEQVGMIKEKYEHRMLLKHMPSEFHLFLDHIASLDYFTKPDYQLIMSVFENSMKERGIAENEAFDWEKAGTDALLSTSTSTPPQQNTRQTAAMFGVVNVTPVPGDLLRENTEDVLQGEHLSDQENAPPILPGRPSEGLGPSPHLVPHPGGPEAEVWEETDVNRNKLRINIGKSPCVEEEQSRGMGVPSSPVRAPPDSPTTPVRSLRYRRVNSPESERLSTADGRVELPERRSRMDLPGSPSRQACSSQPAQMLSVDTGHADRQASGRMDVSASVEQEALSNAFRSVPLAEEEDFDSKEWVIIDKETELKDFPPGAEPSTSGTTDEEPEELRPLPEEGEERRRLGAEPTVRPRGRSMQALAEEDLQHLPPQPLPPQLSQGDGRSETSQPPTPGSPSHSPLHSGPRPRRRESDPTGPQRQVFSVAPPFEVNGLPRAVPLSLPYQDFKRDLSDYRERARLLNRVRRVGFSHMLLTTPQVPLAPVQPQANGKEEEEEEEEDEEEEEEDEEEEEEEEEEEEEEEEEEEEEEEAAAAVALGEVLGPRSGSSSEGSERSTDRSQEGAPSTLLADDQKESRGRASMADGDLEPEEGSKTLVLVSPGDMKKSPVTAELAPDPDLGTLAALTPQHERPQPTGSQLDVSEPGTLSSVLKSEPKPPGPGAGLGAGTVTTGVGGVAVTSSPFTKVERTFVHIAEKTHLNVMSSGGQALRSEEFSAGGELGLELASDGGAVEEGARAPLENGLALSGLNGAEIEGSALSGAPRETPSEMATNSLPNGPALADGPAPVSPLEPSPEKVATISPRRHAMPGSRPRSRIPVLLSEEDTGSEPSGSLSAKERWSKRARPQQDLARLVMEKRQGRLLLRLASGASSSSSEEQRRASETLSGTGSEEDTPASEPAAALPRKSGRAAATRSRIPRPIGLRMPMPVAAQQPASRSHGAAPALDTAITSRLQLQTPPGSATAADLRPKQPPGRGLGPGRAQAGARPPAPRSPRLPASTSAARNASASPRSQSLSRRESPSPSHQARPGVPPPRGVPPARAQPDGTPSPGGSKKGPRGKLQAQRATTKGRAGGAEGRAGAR
T13 sequence (Q9H2G2 whole entry): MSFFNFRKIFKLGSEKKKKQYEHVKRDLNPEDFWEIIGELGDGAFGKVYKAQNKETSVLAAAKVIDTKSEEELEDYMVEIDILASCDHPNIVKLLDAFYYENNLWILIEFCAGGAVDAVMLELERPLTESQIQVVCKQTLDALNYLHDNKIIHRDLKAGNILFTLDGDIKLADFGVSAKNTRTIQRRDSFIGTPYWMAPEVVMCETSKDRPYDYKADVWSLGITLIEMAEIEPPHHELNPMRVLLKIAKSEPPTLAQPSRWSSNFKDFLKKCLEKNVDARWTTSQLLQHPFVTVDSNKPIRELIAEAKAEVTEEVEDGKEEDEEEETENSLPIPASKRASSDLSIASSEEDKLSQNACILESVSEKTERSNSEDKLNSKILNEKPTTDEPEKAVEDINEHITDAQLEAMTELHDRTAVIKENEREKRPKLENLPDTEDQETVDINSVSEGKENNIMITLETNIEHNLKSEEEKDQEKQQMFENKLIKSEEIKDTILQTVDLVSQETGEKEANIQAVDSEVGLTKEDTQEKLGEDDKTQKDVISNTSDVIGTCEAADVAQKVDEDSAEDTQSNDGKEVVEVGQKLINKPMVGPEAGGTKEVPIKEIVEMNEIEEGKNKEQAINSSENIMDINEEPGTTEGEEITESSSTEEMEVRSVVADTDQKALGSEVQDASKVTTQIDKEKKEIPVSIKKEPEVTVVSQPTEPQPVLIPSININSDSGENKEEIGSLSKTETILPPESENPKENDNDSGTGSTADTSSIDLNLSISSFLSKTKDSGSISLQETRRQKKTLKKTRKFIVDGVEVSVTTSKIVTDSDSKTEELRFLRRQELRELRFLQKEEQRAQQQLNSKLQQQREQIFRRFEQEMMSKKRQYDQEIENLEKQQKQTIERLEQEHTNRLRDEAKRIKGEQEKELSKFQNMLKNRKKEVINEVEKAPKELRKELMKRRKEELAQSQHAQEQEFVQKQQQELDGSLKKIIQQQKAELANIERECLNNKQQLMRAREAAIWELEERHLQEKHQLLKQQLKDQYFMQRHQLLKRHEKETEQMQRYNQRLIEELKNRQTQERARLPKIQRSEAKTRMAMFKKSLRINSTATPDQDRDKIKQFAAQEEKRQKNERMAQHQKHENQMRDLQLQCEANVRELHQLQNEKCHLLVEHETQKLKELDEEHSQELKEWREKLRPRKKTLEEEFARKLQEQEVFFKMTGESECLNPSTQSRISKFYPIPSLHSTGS
T11 sequence (Q13554 whole entry): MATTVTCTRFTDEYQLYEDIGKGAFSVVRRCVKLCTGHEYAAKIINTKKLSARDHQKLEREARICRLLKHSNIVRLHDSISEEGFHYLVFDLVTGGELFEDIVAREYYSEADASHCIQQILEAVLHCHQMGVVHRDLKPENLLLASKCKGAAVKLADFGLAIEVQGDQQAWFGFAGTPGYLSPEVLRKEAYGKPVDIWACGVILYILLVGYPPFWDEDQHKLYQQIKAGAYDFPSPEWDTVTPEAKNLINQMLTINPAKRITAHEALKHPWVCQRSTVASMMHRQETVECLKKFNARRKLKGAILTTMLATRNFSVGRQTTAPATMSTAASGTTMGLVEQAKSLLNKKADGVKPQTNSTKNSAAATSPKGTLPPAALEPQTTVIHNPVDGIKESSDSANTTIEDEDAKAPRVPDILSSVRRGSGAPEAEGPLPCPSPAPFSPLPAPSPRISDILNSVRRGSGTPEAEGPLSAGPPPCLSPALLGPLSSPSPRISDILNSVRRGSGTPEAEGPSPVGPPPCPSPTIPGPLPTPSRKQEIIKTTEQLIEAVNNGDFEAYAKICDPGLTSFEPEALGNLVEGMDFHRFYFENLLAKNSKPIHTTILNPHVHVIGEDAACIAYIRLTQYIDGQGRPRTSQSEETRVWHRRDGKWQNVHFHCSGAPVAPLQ

SMILES | remaining activity at 10 µM (382 unique human kinases [1]) | remaining activity at 10 µM (382 unique human kinases [2]) | remaining activity at 10 µM (382 unique human kinases [3]) | remaining activity at 10 µM (382 unique human kinases [4]) | remaining activity at 10 µM (382 unique human kinases [5]) | remaining activity at 10 µM (382 unique human kinases [6]) | remaining activity at 10 µM (382 unique human kinases [7]; [20]) | remaining activity at 10 µM (382 unique human kinases [8]; [20]) | remaining activity at 10 µM (382 unique human kinases [9]) | remaining activity at 10 µM (382 unique human kinases [10]) | remaining activity at 10 µM (382 unique human kinases [11]) | remaining activity at 10 µM (382 unique human kinases [12]) | remaining activity at 10 µM (382 unique human kinases [13]) | remaining activity at 10 µM (382 unique human kinases [14]) | remaining activity at 10 µM (382 unique human kinases [15]) | remaining activity at 10 µM (382 unique human kinases [16]) | remaining activity at 10 µM (382 unique human kinases [17]) | remaining activity at 10 µM (382 unique human kinases [18]) | remaining activity at 10 µM (382 unique human kinases [19]) | further results
CCNC(=O)c1noc(-c2cc(C(C)C)c(O)cc2O)c1-c1ccc(CN2CCOCC2)cc1 [Luminespib] | 59.9% | 90.4% | 90.7% | 102% | 94% | 103% | 61% | 81.2% | 109% | 91.1% |  |  |  |  |  |  |  |  |  | % Enzyme Activity (relative to DMSO controls) (382 unique human kinases [1]): 50.60%; % Enzyme Activity (relative to DMSO controls) (382 unique human kinases [2]): 85.24%; % Enzyme Activity (relative to DMSO controls) (382 unique human kinases [3]): 89.97%; % Enzyme Activity (relative to DMSO controls) (382 unique human kinases [4]): 101.25%; % Enzyme Activity (relative to DMSO controls) (382 unique human kinases [5]): 92.02%; % Enzyme Activity (relative to DMSO controls) (382 unique human kinases [6]): 102.17%; % Enzyme Activity (relative to DMSO controls) (382 unique human kinases [7]; compound 10 uM): 58.73%; % Enzyme Activity (relative to DMSO controls) (382 unique human kinases [8]; compound 10 uM): 80.93%; % Enzyme Activity (relative to DMSO controls) (382 unique human kinases [9]): 109.07%; % Enzyme Activity (relative to DMSO controls) (382 unique human kinases [10]): 90.78%
CC(C)c1cc(-c2n[nH]c(=O)n2-c2ccc3c(ccn3C)c2)c(O)cc1O [Ganetespib (STA9090)] |  |  |  |  |  |  |  |  |  |  | 79.1% | 70.5% | 79.5% | 90.9% | 106% | 71.7% | 61.6% | 83.1% | 88.8% | 
CCNC(=O)c1noc(-c2cc(C(C)C)c(O)cc2O)c1-c1ccc(CN2CCOCC2)cc1 [Luminespib (AUY-922)] |  |  |  |  |  |  |  |  |  |  | 99.6% | 93.8% | 90.2% | 104% | 105% | 75.6% | 102% | 90.9% | 92.8% | % Enzyme Activity (relative to DMSO controls) (382 unique human kinases [11]): 99.03%; % Enzyme Activity (relative to DMSO controls) (382 unique human kinases [12]): 90.56%; % Enzyme Activity (relative to DMSO controls) (382 unique human kinases [13]): 89.63%; % Enzyme Activity (relative to DMSO controls) (382 unique human kinases [14]): 100.91%; % Enzyme Activity (relative to DMSO controls) (382 unique human kinases [15]): 103.94%; % Enzyme Activity (relative to DMSO controls) (382 unique human kinases [16]): 73.04%; % Enzyme Activity (relative to DMSO controls) (382 unique human kinases [17]): 101.49%; % Enzyme Activity (relative to DMSO controls) (382 unique human kinases [18]): 89.68%; % Enzyme Activity (relative to DMSO controls) (382 unique human kinases [19]): 92.70%
CC(C)c1cc(-c2n[nH]c(=O)n2-c2ccc3c(ccn3C)c2)c(O)cc1O [Ganetespib] | 76.2% | 2.65% | 35% | 94% | 94.5% | 91.1% | 13.9% | 4.64% | 101% | 49% |  |  |  |  |  |  |  |  |  | remaining activity at 1 µM (382 unique human kinases [7]; [21]): 49.3%; remaining activity at 1 µM (382 unique human kinases [8]; [21]): 70.2%

Reference: paper PMC8550792, “Evolution of kinase polypharmacology across HSP90 drug discovery” (Cell Chemical Biology, 2021)
